Assay results published in patent publication US20220098146A1, “REVERSIBLE IMINE UV-ABSORBERS” (The United States of America, as represented by the …, priority 2020, published 2022).
Converted amounts (≈) assume the structure as drawn.

Columns and labels:
Rat = settings: cited from earlier work
Silver ide = settings: cited from earlier work
Fathead minnow = settings: cited from earlier work
[1] = in vitro SPF and critical wavelength by UV spectroscopy and Mansur equation; format: physicochemical
Protocol: General procedure for determining in vitro SPF and critical wavelength: This method was adapted from Dutra, et al. (Dutra, E. A., et al., Brazilian Journal of Pharmaceutical Sciences, 3: 381-385 (2004)). First, 1.0 gram of sunscreen was placed in 100 mL flask and filled to volume with ethanol. The solution was mixed and filtered through cotton. 1.0 mL of the filtered solution was added to a 50 mL volumetric flask and the flask was filled to volume with ethanol. This final solution (˜0.02% of initial sunscreen) was placed in a 1 cm polystyrene cuvette and UV/Vis spectrum was recorded from 290 to 400 nm, every 5 nm, using a UV/Vis spectrophotometer (Molecular Devices Spectramax M2 UV-Vis Spectrophotometer) with ethanol as a reference . Next, the Mansur equation was applied (Mansur, J. S., et al., An Bras Dermatol., 61: 121-124 (1986)):
where EE (λ)=erythemal effect spectrum; I(λ)=solar intensity spectrum; abs (λ)=absorbance of sunscreen product; CF—correction factor (=10). The values of EE×I are constants determined by Sayre et al. (Photochemistry and Photobiology, 29(3): 559-566 (1979)) so that a standard sunscreen formulation containing 8% homosalate presents an SPF value of 4. The critical wavelength was determined as the wavelength at which 90% of the total absorbance from 290-400 nm occurred. […]

[2] = system: skin of the intrascapular regions of the back; test: Human repeat insult patch testing (RIPT) for skin irritation and skin sensitization; format: in vivo
Protocol: S2: Repeat Insult Patch Testing (RIPT) Procedure and Results: Human repeat insult patch testing for skin irritation and skin sensitization evaluations, including standard patient consent procedures and oversight, which were obtained after the nature and possible consequences of the study were explained, were conducted by BioScreen Testing Services, Inc. (Torrance, Calif.). Fifty-two volunteers were recruited, provided informed consent prior to initiating, and completed the study (ages 20-59, 10 male, 42 female, all with Fitzpatrick Skin Type 3—burn moderately, tan progressively). Approximately 0.02-0.05 mL of commercial formula (Daily Shower spray cleaner containing 0.2 or 1.0% cuminaldehyde aminoguanidine (CuminAG), pH 5.5-5.9; diluted 3% in DI water) was dispensed on a 7.5 mm paper disk or Rayon/polypropylene patch, which were then affixed to the skin of the intrascapular regions of the back. Subjects were instructed not to wet or expose the test area to sunlight. Patches were kept in place for 48 h after the first application, and 24 h after subsequent applications. This procedure was repeated until nine consecutive 24 h exposures had been made three times a week for three consecutive weeks. Test sites were evaluated by a trained laboratory personnel before each reapplication. After a 10-14 day rest period, a challenge dose was applied once to a previously unexposed test site, which was evaluated by a trained personnel after 48 and 96 h. The International Contact Dermatitis Research Group scoring scale was used: 0=no reaction, 1=erythema throughout at least ¾ of patch area, 2=erythema and induration throughout at least ¾ of patch area, 3=erythema, induration and vesicles, 4=erythema, induration and bullae.

[3] = Calculation of skin permeation coefficient using Modified Potts and Guy Model; settings: ratio of calculated skin permeation coefficient to that of octinoxate
Excerpt: S1: Calculation of Skin Permeation using Modified Potts and Guy Model: The Modified Potts and Guy Model is a validated method for calculating the skin permeation coefficient (Kp) of a compound in cm/hr (Wilschut et al. 1995; Guy and Potts 1993). It relies on two inputs—the octanol-water partition coefficient, (Kow, indicative of hydrophobicity), and the molecular weight of the compound as follows:
Using the Modified Potts and Guy Model, we calculated the skin permeation coefficient (Kp) of aminoguanidine and aldehyde subcomponents. This scenario represents the skin permeation of our compounds after dissociation. In order to probe skin permeation of the assembled guanyl hydrazones, which don't have published Kow's, we calculated Kp's of structurally similar molecules, robenidine and guanabenz. This scenario represents the application of our UV-absorbers directly to the skin via topical products. Lastly, we calculated the Kp of octinoxate for comparison. Based on these theoretical values, our compounds should have a much lower skin permeation potential than octinoxate and other commercial UV-absorbers.

[4] = film leaching in DI or sea water with anion pairing; format: physicochemical
Protocol: General protocol to assess film leaching: To a polyethylene square (1 cm by 1 cm, cut from a Ziploc® bag) 10 μL of a concentrated solution (˜5 wt % in EtOH) of imine was applied and allowed to dry at room temperature (10-20 min) before a concentrated solution of the anion (e.g., sodium lauryl sulfate, sodium cocoyl glutamate, sodium carbonate) to be tested (˜5 wt %) was co-applied and again allowed to dry on the film surface. The film sample was placed inside a 1.5 mL plastic tube containing 1 mL of DI or sea water (sourced from San Francisco Bay, Albany, Calif.) and after a set time (10 min), analyzed for the presence of soluble imine, which was quantified as a percentage of total sample that was originally present on the film (FIG. 6).
As an additional feature, reversible UV-absorbers (e.g., aminoguanidine-aldehyde condensation products) can be paired with anions (e.g., that associate with the cation at typical use levels, e.g., 0.1-10 wt %) to manipulate solubility characteristics. This can greatly reduce water solubility to produce a waterproof sunscreen without relying on increased hydrophobicity of the active agent which is related to increased skin penetration (Wilschut, A., et al., Chemosphere, 30: 1275-1296 (1995); Guy, R. H., and R. O. Potts. American Journal of Industrial Medicine, 23(5): 711-719 (1993))).

[5] = UV absorbance spectroscopy versus subcomponents; format: physicochemical; settings: versus diaminoguanidine and cinnamaldehyde; UVB and UVA regions
Excerpt: We determined the UV absorbing capacity of guanyl hydrazones in comparison to their aminoguanidine and aldehyde subcomponents. We prepared cinnamaldehyde diaminoguanidine (CinDAG) by reacting its subcomponents, diaminoguanidine and cinnamaldehyde, in a molar ratio of 1:2.

COc1ccc(C=O)cc1 [Anisaldehyde]
LD50 (mg/kg) Rat, oral (Rat): 1510 mg/kg | LC50 (mg/L) Fish (Silver ide): 215 mg/L (≈ 1580 µM)

O=Cc1ccccc1 [Benzaldehyde]
LD50 (mg/kg) Rat, oral (Rat): 1300 mg/kg | LC50 (mg/L) Fish (Fathead minnow): 12.4 mg/L (≈ 117 µM)

NC(N)=NN=CC=Cc1ccccc1 [CinAG, cinnamaldehyde aminoguanidine]
in vitro SPF improvement over octinoxate ([1]; concentration of 1% in formula): 155%

O=CC=Cc1ccccc1 [Cinnamaldehyde]
LD50 (mg/kg) Rat, oral (Rat): 3350 mg/kg | LC50 (mg/L) Fish (Fathead minnow): 105.8 mg/L (≈ 801 µM)

CC(C)c1ccc(C=NN=C(N)N)cc1 [CuminAG, cuminaldehyde aminoguanidine]
adverse reactions in RIPT ([2]; Daily Shower spray cleaner containing 0.2 or 1.0% CuminAG, pH 5.5-5.9, diluted 3% in DI water, 52 volunteers, induction and challenge): no adverse reactions of any kind

CC(C)c1ccc(C=O)cc1 [Cuminaldehyde]
LD50 (mg/kg) Rat, oral (Rat): 1390 mg/kg | LC50 (mg/L) Fish (Fathead minnow): 6.62 mg/L (≈ 44.7 µM)

N/N=C(\N)NN [Diaminoguanidine]
Kp/Kp octinoxate [3]: 0.0001

CCCCC(CC)COC(=O)C=Cc1ccc(OC)cc1 (stereo not drawn) [Octinoxate, reference compound]
Kp/Kp octinoxate [3]: 1.0000

CCCCCCCCCCCCOS(=O)(=O)[O-].[Na+] [sodium lauryl sulfate]
subjects with Grade 1 reaction in RIPT ([2]; positive control, 2.0% solution, ICDRG scale, 1=erythema throughout at least 3/4 of patch area): Four | subjects with Grade 2 reaction in RIPT ([2]; positive control, 2.0% solution, ICDRG scale, 2=erythema and induration throughout at least 3/4 of patch area): two

cinnamaldehyde diaminoguanidine [CinDAG]
critical wavelength ([1]; wavelength at which 90% of total absorbance from 290-400 nm occurred): high critical wavelength | water resistance of the blend ([4]; blend with sodium cocoyl glutamate): comparable to that of octinoxate | solubility (leaching off film) on anion pairing ([4]; sodium cocoyl glutamate added, fresh and salt water, 10 min): decreased solubility in both fresh and salt water | UV-absorbing capacity compared to subcomponents [5]: significantly more UV-absorbing capacity than its subcomponents
